{"source": "patent US20030036565A1", "about": "“Cancer chemopreventive agents” (WISCONSIN ALUMNI RESEARCH FOUNDATION, priority 2001, published 2003)", "origin": "cited, not measured here"}
{"tested_on": "phase II enzyme synthesis", "conditions": "cultured murine hepatoma cells; Wilkinson and Clapper, 1997"}
{"smiles": "O=c1cc(-c2ccccc2)oc2ccc3ccccc3c12", "note": "[β-naphthoflavone]", "induction of phase II enzyme synthesis": "induce phase II enzyme synthesis"}
{"smiles": "CC(C)(C)c1cc(O)ccc1O", "note": "[TBHQ, tert-butylhydroquinone]", "induction of phase II enzyme synthesis": "induce phase II enzyme synthesis"}
{"smiles": "COc1ccc(O)c(C(C)(C)C)c1", "note": "[BHA, butylated hydroxyanisole]", "induction of phase II enzyme synthesis": "induce phase II enzyme synthesis"}
{"smiles": "Cc1cc(C(C)(C)C)c(O)c(C(C)(C)C)c1", "note": "[BHT, butylated hydroxytoluene]", "induction of phase II enzyme synthesis": "induce phase II enzyme synthesis"}
